Source: patent US9078899B2, “Pyrazolyl-based carboxamides II” (Grünenthal GmbH, priority 2013, dated 2015)
Like-named read-outs stand apart in the source and are kept apart here.

Legend:
[1] = target: T1, CRAC channel (Homo sapiens, UniProt Q96D31); assay: HEK Calcium Influx Assay (FLIPR); format: cell-based
T1 construct: host or cells: HEK293
Procedure: The effect of compounds of the invention on intracellular [Ca^2+] was tested in the HEK293 cell line (ECACC).
HEK293 cells were cultured in DMEM/F12/Glutamax (Gibco) containing 10% FCS (Gibco), and maintained at 37° C., 5% CO2. Cell were split twice a week [3*10^6 (Mon-Thu) and 1*10^6 (Thu-Mon) cells/50 ml medium in T-175 ZK culture flasks, respectively]. Twenty four hours pre-experiment, cells were seeded on 96 well plates (Poly-D-Lysine 96well Black/Clear Plate, BD Biocoat REF 356640) at a density of 40,000 cells/well in DMEM/F12 (Gibco) containing 10% FCS (Gibco), and maintained at 37° C., 5% CO2.
Prior to store-depletion, cell culture medium was removed and cells were loaded with the a Calcium-sensitive fluorescent dye comprised within the Calcium-4-assay kit (Molecular Devices) in nominally Ca^2+-free HBS buffer (140 mM NaCl, 4 mM KCl, 0.2 mM MgCl2, 11 mM D-glucose, and 10 mM HEPES, pH 7.4) according to manufacturer's instruction for 60 min at 37° C., 5% CO2.
Passive depletion of intracellular Ca^2+-stores was then triggered by employing the SERCA inhibitor thapsigargin (2 μM final) for 10 min in the dark (RT). To prevent immediate Ca^2+-entry via the activated Store-operated channels (SOCs), cells were maintained in Ca^2+-free HBS buffer comprising 100 μM EGTA during store-depletion.
Intracellular changes in [Ca^2+] were subsequently monitored with the FLIPR device (Molecular Devices). In brief, baseline imaging post-store depletion was allowed for 1 min before adjusting the extracellular buffer to 3 mM CaCl2. Increases in intracellular [Ca^2+] due to pre-activated SOC channels were monitored for 15 min until intracellular Ca^2+ levels had declined into a steady-state. Finally, compounds were administered and Ca^2+ signals were recorded for additional 10 min.
Inhibition of endogenous SOC in HEK293 cells was quantified employing the average Ca^2+ signal measured from 9.5-10 min post-administration. Zero percent inhibition (MAX) was defined as the Ca^2+ signal recorded from wells to which DMSO-only had been added instead of compound. Hundred percent inhibition (MIN) was defined as the signal obtained from wells in which cells haven't been treated with TG prior to Ca^2+ addition and to which DMSO-only had been added instead of compound. For routine IC50 determinations of compounds, 8 concentrations of a serial dilution (1:3.16) were tested, starting off from 10 μM. Reliable IC50's could consequently be determined only, if they were at least sub 2.5-3 μM.

[2] = test system: Interleukin-2 (IL-2) production/release; assay: Jurkat IL-2 Production Assay; format: cell-based; settings: Homo sapiens; Jurkat T cells clone E6-1, 15 μg/ml PHA for 22 hours, IL-2 in supernatant
Procedure: Jurkat IL-2 Production Assay
The effect of compounds of the invention on Interleukin-2 (IL-2) production/release was tested in the Jurkat T cell line (ECACC) clone E6-1.
Jurkat T cells were cultured in DMEM/F12/Glutamax (Gibco) containing 10% FCS (Gibco), and maintained at 37° C., 5% CO2. Cell were split twice a week [5*10^6 (Mon-Thu) and 1*10^7 (Thu-Mon) cells/50 ml medium in T-175 ZK culture flasks, respectively].
Prior to experiment, cells were seeded on 96 well plates (Cellstar 96 Well; Cat No. 655180, Greiner bio-one) at a density of 5*10^5 cells/well in DMEM/F12/Glutamax (Gibco) containing 10% FCS (Gibco), and incubated for 60 min at 37° C., 5% CO2. Subsequently, compounds were added and cells were allowed to incubate for 30 min at 37° C., 5% CO2. Cells were then stimulated with 15 μg/ml Phytohemagglutinin (PHA; Sigma) for 22 hours at 37° C., 5% CO2.
Before sampling of the supernatants, cells were spun down (200*g/5 min/RT). The amount of IL-2 released into the supernatant was quantified with the human IL-2 AlphaLisa kit (Perkin Elmer) according to manufacturer's instructions. Luminescence proximity measurements were carried out in the Synergy H4 reader (BioTek) employing the fluorescence setting of the reader (ex: 680/30 nm; em: 620/40 nm).
Inhibition of IL-Production/Release in/from Jurkat T Cells was Quantified as Follows:
Zero percent inhibition (MAX) was defined as the [IL-2] determined in supernatants derived from cells to which PHA & DMSO-only had been added instead of compound. Hundred percent inhibition (MIN) was defined as the [IL-2] determined in supernatants derived from cells that had been pre-treated with 1 μM CyclosporineA (Sigma) before the addition of 15 μg/ml PHA.
For routine IC50 determinations of compounds, 8 concentrations of a serial dilution (1:3.16) were tested, starting off from 10 μM.

[3] = 10 μM, endogenous SOC in HEK293 cells, thapsigargin store depletion, Ca2+ signal 9.5-10 min post-administration, read-out: % inhib.[@ 10 μM] FLIPR

T1 sequence (Q96D31 whole entry): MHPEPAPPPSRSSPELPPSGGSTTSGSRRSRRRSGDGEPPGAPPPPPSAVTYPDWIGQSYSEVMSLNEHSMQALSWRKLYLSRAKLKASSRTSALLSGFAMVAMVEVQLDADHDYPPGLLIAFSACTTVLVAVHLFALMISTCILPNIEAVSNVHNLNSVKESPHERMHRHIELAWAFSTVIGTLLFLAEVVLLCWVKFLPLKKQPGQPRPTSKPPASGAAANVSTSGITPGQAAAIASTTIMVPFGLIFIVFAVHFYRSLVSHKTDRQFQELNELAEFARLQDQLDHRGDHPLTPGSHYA

| SMILES | inhibition at 10 µM [1, 3] | IC50 [2] | inhibition at 10 µM ([1]; HEK293, read-out: % inhib.[@ 10 μM] FLIPR) |
| --- | --- | --- | --- |
| COc1ccc(OC)c(-c2cc(C(=O)Nc3ccc(F)cc3F)nn2C)c1 [Example 2, N-(2,4-Difluoro-phenyl)-5-(2,5-dimethoxyphenyl)-1-methyl-1H-pyrazole-3-carboxylic acid amide] | > 70% | 1 to 5 µM |  |
| CCOc1ccc(OC)cc1-c1cc(C(=O)Nc2ccncc2F)nn1C [Example 3, 5-(2-Ethoxy-5-methoxy-phenyl)-N-(3-fluoro-pyridin-4-yl)-1-methyl-1H-pyrazole-3-carboxylic acid amide] | < 50% | 1 to 5 µM |  |
| CCOc1ccc(OC)cc1-c1cc(C(=O)Nc2c(F)cccc2F)nn1C [Example 4, N-(2,6-Difluoro-phenyl)-5-(2-ethoxy-5-methoxy-phenyl)-1-methyl-1H-pyrazole-3-carboxylic acid amide] | > 70% | 0.5 to 1 µM |  |
| COc1ccc(OC(F)(F)F)c(-c2cc(C(=O)Nc3ccncc3F)nn2C)c1 [Example 9, N-(3-Fluoro-pyridin-4-yl)-5-[5-methoxy-2-(trifluoromethyloxy)-phenyl]-1-methyl-1H-pyrazole-3-carboxylic acid amide] | > 70% | 1 to 5 µM |  |
| COc1ccc(F)cc1-c1cc(C(=O)Nc2c(F)cccc2F)nn1C [Example 10, N-(2,6-Difluoro-phenyl)-5-(5-fluoro-2-methoxy-phenyl)-1-methyl-1H-pyrazole-3-carboxylic acid amide] | > 70% | 0.5 to 1 µM |  |
| COc1ccc(OC)c(-c2c(N)c(C(=O)Nc3ccncc3F)nn2C)c1 [Example 48, 4-Amino-5-(2,5-dimethoxyphenyl)-N-(3-fluoro-pyridin-4-yl)-1-methyl-1H-pyrazole-3-carboxylic acid amide] | > 70% |  |  |
| Cc1cccc(Cl)c1NC(=O)c1cc(-c2c(F)cccc2F)n(C)n1 [Example 52, N-(2-Chloro-6-methyl-phenyl)-5-(2,6-difluoro-phenyl)-1-methyl-1H-pyrazole-3-carboxylic acid amide] | 50 to 70% |  |  |
| Cc1cncc(F)c1NC(=O)c1cc(-c2c(F)cccc2F)n(C)n1 [Example 53, 5-(2,6-Difluoro-phenyl)-N-(3-fluoro-5-methyl-pyridin-4-yl)-1-methyl-1H-pyrazole-3-carboxylic acid amide] | 50 to 70% |  |  |
| Cn1nc(C(=O)Nc2ccccc2OC(F)(F)F)cc1-c1c(F)cccc1C(F)(F)F [Example 54, 5-[2-Fluoro-6-(trifluoromethyl)-phenyl]-1-methyl-N-[2-(trifluoromethyloxy)-phenyl]-1H-pyrazole-3-carboxylic acid amide] | 50 to 70% |  |  |
| Cn1nc(C(=O)Nc2ccc(F)cc2F)cc1-c1c(F)cccc1C(F)(F)F [Example 55, N-(2,4-Difluoro-phenyl)-5-[2-fluoro-6-(trifluoromethyl)-phenyl]-1-methyl-1H-pyrazole-3-carboxylic acid amide] | 50 to 70% |  |  |
| Cn1nc(C(=O)Nc2ccc(Cl)cc2Cl)cc1-c1c(F)cccc1C(F)(F)F [Example 57, N-(2,4-Dichlorophenyl)-5-[2-fluoro-6-(trifluoromethyl)-phenyl]-1-methyl-1H-pyrazole-3-carboxylic acid amide] |  |  | 50 to 70% |
| COc1cc(F)c(NC(=O)c2cc(-c3c(F)cccc3C(F)(F)F)n(C)n2)c(F)c1 [Example 58, N-(2,6-Difluoro-4-methoxy-phenyl)-5-[2-fluoro-6-(trifluoromethyl)-phenyl]-1-methyl-1H-pyrazole-3-carboxylic acid amide] | 50 to 70% |  |  |
| Cn1nc(C(=O)Nc2ccncc2F)cc1-c1c(F)cccc1C(F)(F)F [Example 62, N-(3-Fluoro-pyridin-4-yl)-5-[2-fluoro-6-(trifluoromethyl)-phenyl]-1-methyl-1H-pyrazole-3-carboxylic acid amide] | > 70% |  |  |
| Cc1cncc(F)c1NC(=O)c1cc(-c2c(F)cccc2C(F)(F)F)n(C)n1 [Example 63, N-(3-Fluoro-5-methyl-pyridin-4-yl)-5-[2-fluoro-6-(trifluoromethyl)-phenyl]-1-methyl-1H-pyrazole-3-carboxylic acid amide] | > 70% |  |  |
| Cc1ccncc1-c1cc(C(=O)Nc2ccccc2C(F)(F)F)nn1C [Example 64, 1-Methyl-5-(4-methyl-pyridin-3-yl)-N-[2-(trifluoromethyl)-phenyl]-1H-pyrazole-3-carboxylic acid amide] | > 70% |  |  |
| Cc1ccncc1-c1cc(C(=O)Nc2c(C)cncc2F)nn1C [Example 65, N-(3-Fluoro-5-methyl-pyridin-4-yl)-1-methyl-5-(4-methyl-pyridin-3-yl)-1H-pyrazole-3-carboxylic acid amide] | > 70% |  |  |

More lines, main results first:

| inhibition at 10 µM [1, 3] | IC50 [2] | SMILES | inhibition at 10 µM ([1]; HEK293, read-out: % inhib.[@ 10 μM] FLIPR) |
| --- | --- | --- | --- |
| > 70% | 1 to 5 µM | COc1ccccc1-c1cc(C(=O)Nc2c(F)cccc2F)nn1C [Example 1, N-(2,6-Difluoro-phenyl)-5-(2-methoxyphenyl)-1-methyl-1H-pyrazole-3-carboxylic acid amide] |  |
| > 70% | 0.5 to 1 µM | Cn1nc(C(=O)Nc2c(F)cccc2F)cc1-c1ccccc1C(F)(F)F [Example 7, N-(2,6-Difluoro-phenyl)-1-methyl-5-[2-(trifluoromethyl)-phenyl]-1H-pyrazole-3-carboxylic acid amide] |  |
| > 70% | < 0.5 µM | COc1ccc(OC(F)(F)F)c(-c2cc(C(=O)Nc3c(F)cccc3F)nn2C)c1 [Example 8, N-(2,6-Difluoro-phenyl)-5-[5-methoxy-2-(trifluoromethyloxy)-phenyl]-1-methyl-1H-pyrazole-3-carboxylic acid amide] |  |
| 50 to 70% |  | Cn1nc(C(=O)Nc2c(F)cccc2F)cc1-c1c(F)cccc1F [Example 50, N,5-Bis(2,6-difluoro-phenyl)-1-methyl-1H-pyrazole-3-carboxylic acid amide] |  |
| 50 to 70% |  | Cn1nc(C(=O)Nc2ccccc2C#N)cc1-c1c(F)cccc1C(F)(F)F [Example 56, N-(2-Cyano-phenyl)-5-[2-fluoro-6-(trifluoromethyl)-phenyl]-1-methyl-1H-pyrazole-3-carboxylic acid amide] |  |
| > 70% |  | Cc1cccc(F)c1NC(=O)c1cc(-c2c(F)cccc2C(F)(F)F)n(C)n1 [Example 59, N-(2-Fluoro-6-methyl-phenyl)-5-[2-fluoro-6-(trifluoromethyl)-phenyl]-1-methyl-1H-pyrazole-3-carboxylic acid amide] |  |
| > 70% |  | Cn1nc(C(=O)Nc2ccccc2C(F)(F)F)cc1-c1c(F)cccc1C(F)(F)F [Example 60, 5-[2-Fluoro-6-(trifluoromethyl)-phenyl]-1-methyl-N-[2-(trifluoromethyl)-phenyl]-1H-pyrazole-3-carboxylic acid amide] |  |
| > 70% |  | Cn1nc(C(=O)Nc2ccccc2F)cc1-c1c(F)cccc1C(F)(F)F [Example 61, N-(2-Fluorophenyl)-5-[2-fluoro-6-(trifluoromethyl)-phenyl]-1-methyl-1H-pyrazole-3-carboxylic acid amide] |  |
